Results published in patent US9907762B2, “Stabilized mutant opsin proteins” (University of Washington, priority 2003, dated 2018).
“Also recorded” adds a separate entry of the source.

How the values were obtained:
[1] = target: T1, wild-type opsin (Bos taurus, UniProt P02699); assay: Thermostability of pigments; assay type: biochemical; settings: incubation at either 4° C. or 37° C.
T1 construct: expressed in transfected cells

[2] = target: T1, wild-type opsin; assay: Photosensitivity studies; assay type: biochemical
[3] = target: T1, wild-type opsin; assay: Immunocytochemistry, localization in HEK293 cells; assay type: cell-based; settings: immunofluorescence
Experimental: HEK293 cells expressing wild-type rhodopsin or P23H-opsin under a tetracycline-inducible promoter were cultured in Dulbecco's modified Eagle's medium (Invitrogen). The cells were attached to glass bottom microwell dishes (MatTek Corp.) with Cell-Tak (Becton Dickinson Labware). Expression of opsin or P23H-opsin was induced by the addition of 1 μg/ml tetracycline as recommended by the manufacturer's protocol (Invitrogen). The cells were treated with 50 μM 11-cis-7-ring retinal 2 hours after induction. The cells were harvested after 24 hours and fixed with 4% paraformaldehyde (Fisher) in PBS (136 mM NaCl, 11.4 mM sodium phosphate, pH 7.4) for 10 minutes and washed by PBS. To block nonspecific labeling, the cells were incubated in 1.5% normal goat serum (Vector Lab., Inc.) in PBST (136 mM NaCl, 11.4 mM sodium phosphate, 0.1% Triton X-100, pH 7.4) for 15 minutes at room temperature. The cells were incubated overnight at 4° C. in purified 1D4 antibody diluted with PBST. The sections were rinsed in PBST and incubated with indocarbocyanine (Cy3)-conjugated goat anti-mouse IgG (Jackson ImmunoResearch Lab., Inc.) and Hoechst 33342 dye (Molecular Probes). […] For confocal imaging, the cells were analyzed on a Zeiss LSM510 laser scanning microscope (Carl Zeiss, Inc.).

[4] = target: T2, P23H-opsin (Bos taurus, UniProt P02699, P23H); assay: Pigment regeneration, retinals added to harvested cells/cell membranes; assay type: biochemical; settings: retinal added after the cells were harvested
T2 construct: expressed in transfected cells
Description: (§1) For the construction and selection of tetracycline-inducible opsin cell lines, an Invitrogen T-REx™ system was used. Briefly, nucleic acids encoding wild-type opsin and the P23H mutant were excised as EcoRI-NotI fragments from pMT4 and then cloned into the EcoRI-NotI site within the polylinker of pcDNA4. Using opsin-specific forward and reverse primers, the entire gene was sequenced for verification. These plasmids were then separately transfected by calcium-phosphate precipitation into T-REx™-293 cells that already stably expressed the tetracycline repressor; these cells were routinely grown under blasticidin selection. After transfection, zeocin was added to the culture medium, and surviving colonies of cells were isolated and subsequently expanded into larger 6-well plates. Each of these clones was exposed to tetracycline, and 48 hours after induction, the cells were harvested and solubilized with 1% DM. Separately, uninduced cells were also solubilized. The samples were run on SDS-PAGE and immunoblotted with the monoclonal antibody 1D4. Cell lines were chosen on the basis of production of the least amount of opsin (i.e., nondetectable opsin levels on immunoblots) in the absence of tetracycline and moderate amounts of opsin in the presence of the drug. HEK293 cells were grown in Dulbecco's modified Eagle's medium containing high glucose (Invitrogen) at 37° C. in the presence of 5.0% CO2. In all of the studies, the cells were harvested after 48 hours of induction with tetracycline (1 μg/ml).
(§2) The cells were washed three times with PBS, harvested, and incubated with different analogs of 11-cis-retinal (50 μM) for 45 minutes at 4° C. The cells were then lysed with 1.0% n-dodecyl-maltoside (DM) (Anatrace) in the presence of protease inhibitors (complete protease inhibitor mixture tablets; Roche Molecular Biochemicals) and centrifuged at 36,000 rpm in a Beckman ultracentrifuge for 30 minutes at 4° C. The supernatant was incubated with 1D4-coupled CNBr-activated Sepharose 4B (Pharmacia Corp.) beads overnight. The beads were then washed three times with PBS containing 0.1% DM. Bound pigments were eluted off the beads using 0.1 mM synthetic peptide (last 9 amino acid residues of the C terminus of rhodopsin) in 0.1% DM. In studies when retinoids (50 μM) were added during biosynthesis, a Me2SO solution of retinoids (10 μl of 100 mM) was added directly to the cell culture medium after 2 and 24 hours of induction. The cells were harvested at 48 hours and lysed with 1.0% DM. Pigment was purified by immunoaffinity chromatography. The UV-visible spectra of the eluted pigment samples were then recorded on a Perkin Elmer Lambda 800 UV-visible spectrophotometer in the range of 250-650 nm.

[5] = target: T1, wild-type opsin; assay: as above; assay type: biochemical; settings: retinal 50 μM added to harvested cells, 45 minutes at 4° C.
Description: as §1, §2

[6] = target: T1, wild-type opsin; assay: Pigment formation, retinals added to cell culture medium during opsin biosynthesis; assay type: cell-based; settings: for pigment formation with wild-type opsin: retinal 50 μM added during biosynthesis; for absorbance max of the pigment formed with wild-type opsin: retinal added during biosynthesis, immunoaffinity purified
Description: as §1, §2

[7] = target: T2, P23H-opsin; assay: as above; assay type: cell-based; settings: for pigment formation / rescue of folding of P23H-opsin: retinal 50 μM added during biosynthesis; for absorbance max of the pigment formed with P23H-opsin: retinal added during biosynthesis, immunoaffinity purified
[8] = target: T2, P23H-opsin; assay: Glycosylation status by immunoblotting; assay type: cell-based; settings: retinal added during biosynthesis, immunoblot
Experimental: The samples were loaded on 10% SDS-polyacrylamide gels and transferred to Immobilon-NC membrane (Millipore) according to established protocols. The membranes were blocked with blocking buffer (Licor) for 1 hour and incubated at room temperature with 1D4 antibody (1:1000) for 1 hour. […] The membranes were then washed with PBS containing Tween 20 and scanned using an Odyssey Infrared imager (Licor).
The samples were incubated at 37° C. for 16 hours and then loaded onto a 10% polyacrylamide gel. The immunoblots were developed as described above.

[9] = target: T2, P23H-opsin; assay: Retinoid analysis of the bound chromophore (HPLC, spectrophotometry); assay type: binding
Experimental: (§3) The mixture was kept at room temperature for 30 min, and then 400 μl of MeOH and 400 μl of hexane were added. The mixture was shaken on a vortex for 5 minutes and centrifuged at 14,000 rpm to separate layers. The hexane layer was collected. Another 400 μl of hexane was added to the aqueous layer, and extraction was repeated. Combined hexane layers were dried down and redissolved in 120 μl of hexane, and 100 μl fractions were analyzed by normal phase HPLC as previously described.

[10] = target: T1, wild-type opsin; assay: as above; assay type: binding
Experimental: as §3

[11] = target: T2, P23H-opsin; assay: Immunocytochemistry, localization in HEK293 cells; assay type: cell-based; settings: immunofluorescence
Experimental: HEK293 cells expressing wild-type rhodopsin or P23H-opsin under a tetracycline-inducible promoter were cultured in Dulbecco's modified Eagle's medium (Invitrogen). The cells were attached to glass bottom microwell dishes (MatTek Corp.) with Cell-Tak (Becton Dickinson Labware). Expression of opsin or P23H-opsin was induced by the addition of 1 μg/ml tetracycline as recommended by the manufacturer's protocol (Invitrogen). […] The cells were harvested after 24 hours and fixed with 4% paraformaldehyde (Fisher) in PBS (136 mM NaCl, 11.4 mM sodium phosphate, pH 7.4) for 10 minutes and washed by PBS. To block nonspecific labeling, the cells were incubated in 1.5% normal goat serum (Vector Lab., Inc.) in PBST (136 mM NaCl, 11.4 mM sodium phosphate, 0.1% Triton X-100, pH 7.4) for 15 minutes at room temperature. The cells were incubated overnight at 4° C. in purified 1D4 antibody diluted with PBST. The sections were rinsed in PBST and incubated with indocarbocyanine (Cy3)-conjugated goat anti-mouse IgG (Jackson ImmunoResearch Lab., Inc.) and Hoechst 33342 dye (Molecular Probes). The cells were rinsed in PBST and mounted in 50 μl of 2% 1,4-diazabicyclo-[2.2.2]octane (Sigma) in 90% glycerol to retard photobleaching. For confocal imaging, the cells were analyzed on a Zeiss LSM510 laser scanning microscope (Carl Zeiss, Inc.).

[12] = cell membranes, after photobleaching
[13] = mixture of the four 7-ring retinal isomers added during biosynthesis

Compound	pigment formation with P23H-opsin in cell membranes [4]	regeneration of wild-type rhodopsin in cell membranes [5]	pigment formation with wild-type opsin [6]	pigment formation / rescue of folding of P23H-opsin [7]	absorbance max of the pigment formed with wild-type opsin [6]	absorbance max of the pigment formed with P23H-opsin [7]	glycosylation of P23H-opsin [8]	also measured
7-rhodopsin: rhodopsin (wild-type opsin) regenerated with 11-cis-7-ring retinal								temperature stability of purified pigment [1]: no change in the amount of chromophore; stability to light in cell membranes ([2]; HEK293 cell membranes, 20 minutes light): not bleached by light; stability to light, purified in detergent ([2]; purified pigment in detergent): stable to light; cellular localization of wild-type opsin pigment [3]: found predominantly at the plasma membrane
11-cis-6-ring retinal	only a small amount of pigment was formed	regeneration	recombined with wild-type opsin	No significant pigment; also recorded: lack of activity				
11-cis-7-ring retinal	only a small amount of pigment was formed	regeneration	recombined with wild-type opsin	significant amounts of pigment	approximately 500±3 nm	approximately 490±3 nm	Golgi-associated glycosylation pattern similar to the wild-type protein	fraction of P23H-opsin folded to form pigment (rescued) ([7]; selective elution of folded form, 10 mM phosphate, pH 6.0, spectra and immunoblots): approximately 80%; substitution of bound chromophore by added 11-cis-retinal [9, 12]: did not lead to its substitution; isomer bound by P23H-opsin [9, 13]: selectively bound; substitution of bound chromophore by added 11-cis-retinal [10, 12]: did not lead to its substitution; isomer bound by wild-type opsin [10, 13]: selectively bound
11-cis-9-demethyl-7-ring retinal				ineffective in pigment formation				pigment formation / rescue of folding of P23H-opsin ([7]; listed as 11-cis-9-demethyl-ring retinal): lack of activity
CC1=C(/C=C/C(C)=C\C=C\C(C)=C\C=O)C(C)(C)CCC1 [9-cis-retinal]								cellular localization of P23H-opsin [11]: promoted transport of P23H-opsin to the cell surface
CC1=C(/C=C/C(C)=C/C=C/C(C)=C/C=O)C(C)(C)CCC1 [11-cis-retinal]	only a small amount of pigment was formed	regeneration	regeneration	induce the in vivo folding and stabilization of P23H-opsin	499 nm	492 nm	acquired a mature state of glycosylation	
